The values below come from US10506810B2, “Synergistic herbicidal composition” (QINGDAO KINGAGROOT RESISTANT WEED MANAGEMENT CO., LTD., priority 2015, dated 2019).

Structures are written as SMILES. Where two headings read alike, the source gives them in different places.

What all share (assay): pot-culture method, stem and leaf treatment in greenhouse, fresh weight inhibition rate 20 days after treatment (Gowing method)
Holding throughout (format): in vivo

The subject of one assay is Myosoton aquaticum. The conditions noted are these: Myosoton aquaticum, 480 h, read-out: actual fresh weight inhibition rate. As to the method: (§1) Capsella bursa-pastoris, Myosoton aquaticum, Alopecurus japonicus were collected from corn fields in Huangdao Experimental Base of Shandong Province.
(§2) The above weeds were cultivated by a pot culture method. […] Full and uniform weed seeds were selected, soaked in warm water at 25° C. for 6 hours, and germinated in a 28° C. biochemical incubator (darkness). […] A certain amount of water was added to the enamel pan regularly to keep the soil moist.
(§3) The technical materials were all dissolved in acetone, and diluted with an aqueous solution containing 0.1% emulsifier T-80. The dilution is performed as required.
(§4) A ratio of the active ingredient A to the active ingredient B and amounts thereof in each group depends on the characteristics and toxicity of the two agents, as well as the main application purpose of a corresponding formulation. Based on the pre-tests in this study, the dosage of the active ingredient A and the active ingredient B applied alone and in combination were shown in the tables, and a total 15 groups were designed. Water containing the solvent and emulsifier same with the above groups but free of the agents was used as a blank control.
(§5) 3 pots with 20 weed seeds per pot were treated in one treatment with […] per treatment, that is, a total of 60 weeds were treated in one treatment.
(§6) The agents were used for only once in the experiment. In the stage of weeds with 2 leaves and 1 core, the weeds were thinned out to maintain 15 weeds per pot and 45 weeds for each treatment, then continued to be cultured to 3-5-leaves stage of Capsella bursa-pastoris and Myosoton aquaticum, and 3-leaves and 1-core stage of Alopecurus japonicus, and treated.
(§7) The well-cultured weeds were evenly placed on a platform with an area of 0.5 m^2, and a solution of agents was sprayed on the stems and leaves thereof by the 3WP-2000-type walking spray tower at a dosage of 30 kg/ha and at a spray pressure of 0.3 MPa. After all the solution was sprayed, the valve was closed. After 30 seconds, the door of the spray tower was opened, and the nutritional bowl was taken out. Then the valve was opened, and the spray tube was cleaned by spraying 50 ml of water.
(§8) A pot-culture method was employed. For the cultivation of weeds, please refer to the Section 1.2, and “Pesticide guidelines for laboratory bioactivity tests—herbicides”. As to a method for applying agents, please refer to the section 2.3.2, that is, a method for treating stems and leaves was employed.
(§9) A method for investigating absolute number was employed, wherein whole seedlings of survival weeds were cut off with a blade along the soil surface, and the fresh weight of the weeds was weighed with an analytical balance. For dead weeds, the fresh weight thereof was zero.
(§10) The investigation was performed after 20 days of the treatment for only once.
(§11) Wherein, in the formula, X represented the fresh weight inhibition rate of the active ingredient A in a dosage of P, and Y represented the fresh weight inhibition rate of the active ingredient B in a dosage of Q.

For the next assay, the system named is Alopecurus japonicus. As to the method: as §1, §2, §3, §4, §5, §6, §7, §8, §9, §10, §11
For a further assay, the system named is Capsella bursa-pastoris. The conditions noted are these: 480 h, Capsella bursa-pastoris, read-out: actual fresh weight inhibition rate. As to the method:
as §1, §2, §3, §4, §5, §6, §7, §8, §9, §10, §11

For the compound `Cc1nn(C)cc1C(=O)Oc1c(C(=O)c2ccc(C(F)(F)F)cc2S(C)(=O)=O)c(C)nn1C` [active ingredient A], the pest or weed control at 15 g/ha in the assay on Myosoton aquaticum (Myosoton aquaticum (Table 19), 15 g/hm^2) came to 13.2%; in the assay on Myosoton aquaticum (15 g/hm^2), 67.4%; in the assay with Myosoton aquaticum (dosage 15 g/hm^2), 67.4%; with Capsella bursa-pastoris (15 g/hm^2), 72.3%. The pest or weed control at 30 g/ha with Myosoton aquaticum (Myosoton aquaticum (Table 19), 30 g/hm^2) was found to be 16.5%; in the assay with Myosoton aquaticum (30 g/hm^2), 87.6%; in the assay on Myosoton aquaticum (dosage 30 g/hm^2) it was 87.6%; in the assay with Capsella bursa-pastoris (30 g/hm^2), 90.5%. The pest or weed control at 45 g/ha in the assay with Myosoton aquaticum (Myosoton aquaticum (Table 19), 45 g/hm^2) is 24.6%; in the assay with Myosoton aquaticum (45 g/hm^2), 100%; in the assay with Myosoton aquaticum (dosage 45 g/hm^2), 100%; in the assay with Capsella bursa-pastoris (45 g/hm^2) it was 100%. Further, the “actual fresh weight inhibition rate” value in the assay on Alopecurus japonicus (Alopecurus japonicus, 15 g/hm^2) amounted to 13.2%; in the assay with Alopecurus japonicus (Alopecurus japonicus, 30 g/hm^2), 16.5%; in the assay on Alopecurus japonicus (Alopecurus japonicus, 45 g/hm^2) it was 24.6%; in the assay on Alopecurus japonicus (dosage 15 g/hm^2), 13.2%; with Alopecurus japonicus (dosage 30 g/hm^2) it was 16.5%; in the assay with Alopecurus japonicus (dosage 45 g/hm^2), 24.6%.
